According to patent publication US20200339544A1 (JOINT STOCK COMPANY "BIOCAD", priority 2017, published 2020):
pIC50: −log10 of the molar value. Where two headings read alike, the source gives them in different places.

What was measured:
[1] = Chemical stability in simulated gastric fluid (SGF); assay type: physicochemical; conditions: SGF without enzymes, pH 1,4; 10 μm; 2 hours at 37° C.; substance amount remaining
Method: (§1) 1) Determination of chemical stability in simulated intestinal fluid, simulated gastric fluid and human blood plasma.
(§2) SGF concentrate without enzymes, pH=1,4 (Sigma Ireland, cat #01651) was used as simulated gastric fluid. Initial candidate solution (10 mM in DMSO) was diluted with a SGF working solution to a concentration of 10 μm (test solution). The test solution was incubated in a dry block thermostat for 2 hours at 37° C. SIF concentrate without enzymes, pH=6.5 (Sigma Ireland, cat #55331) was used as simulated intestinal fluid. Initial candidate solution (10 mM in DMSO) was diluted with a SIF working solution to a concentration of 10 μm (test solution). The test solution was incubated in a dry block thermostat for 2 hours at 37° C. HPLC with Agilent 1200 liquid chromatography system (Agilent, USA) was employed to determine peak areas of the compounds in test samples, said peak areas corresponding to the initial test time (prior to incubation) and the final test time (after incubation in a dry block thermostat for 2 hours at 37° C.). We used gradient elution (1 mL/min flow rate). Substance amount in % in a sample after thermostatting was determined.
(§3) The stability of the compounds was estimated.

[2] = test system: A549 (lung adenocarcinoma, WT); assay: Antiproliferative activity on A549 cells (Alamar Blue); assay type: cell-based; conditions: Homo sapiens, antiproliferative test
Method in brief: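 Viability read by Alamar Blue fluorescence (λEx 540, λEm 590 nm) 3-5 h after dye addition, following 72 h compound treatment at 37° C in 2% FBS RPMI-1640, ≤1% DMSO. Seeding 5*10^3 cells/well, 16-18 h attachment. Four-parameter logistic model gave IC50.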

WT EGFR (Wild-Type EGFR) = biological target: T1, WT EGFR (Wild-Type EGFR) (Homo sapiens, UniProt P00533); assay: Inhibition of WT EGFR kinase activity (ADP-Glo); assay type: biochemical
T1 construct: purchased SignalChem
Method in brief: (§4)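 Luminescent ADP-Glo readout was used for both wild-type and L858R/T790M EGFR, each run 180 minutes at 37° C. Reactions used a solution of 50 μM ATP with 0.5 mg/mL peptide substrate. Four-parameter logistic curves gave IC50.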

[3] = Chemical stability in human blood plasma; assay type: in vitro ADME; conditions: pooled human blood plasma; 10 μm; 4 hours at 37° C.; substance amount remaining
Method in brief: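 Percent of parent remaining was derived by comparing HPLC peak areas at time zero and after 4 h at 37 °C. Test compound was at 10 μM in human plasma pooled from ten donors, and proteins were precipitated with acetonitrile before analysis.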

[4] = General cytotoxicity on HepG2 cells; assay type: cell-based; conditions: human; general cytotoxicity, HepG2 cells, 72 hours, average of several tests
Method in brief: (§5)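 HepG2 cells seeded at 2*10^4 cells per well and compounds added in DMEM with 2% FBS for 72 h at 37 °C. Viability read with Alamar Blue and CC50 derived as for IC50. Therapeutic index taken as HepG2 CC50 over H1975 IC50.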

HepG2 cells = assay: General cytotoxicity on HepG2 cells; assay type: cell-based; conditions: therapeutic index, CC50 HepG2 / IC50 H1975
Method in brief: as §5

[5] = biological target: T2, DM EGFR (DoubleMutantEGFR, L828R/T790M) (Homo sapiens, UniProt P00533, L858R/T790M); assay: Inhibition of DM EGFR kinase activity (ADP-Glo); assay type: biochemical; conditions: for pIC50: inhibition of kinase activity, EGFR DM (L828R/T790M); for SI, IC50(WT)/IC50(DM): selectivity index, kinase EGFR WT vs EGFR DM
T2 construct: purchased SignalChem
Method in brief: as §4

[6] = test system: H1975 (lung adenocarcinoma, DM, L828R/T790M); assay: Antiproliferative activity on H1975 cells (Alamar Blue); assay type: cell-based; conditions: for pIC50: Homo sapiens, NCI-H1975, H1975 cells; for SI IC50(A549)/IC50(DM): selectivity index, A549 vs H1975 cells
Method in brief: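 IC50 was fitted with a four-parameter logistic model to Alamar Blue fluorescence (540/590 nm), read 3-5 h after dye addition. Before that, compounds acted on attached H1975 cells, 15*10^3 per well in 2% FBS RPMI-1640, for 72 h at 37 °C, DMSO no more than 1%.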

[7] = Chemical stability in simulated intestinal fluid (SIF); assay type: physicochemical; conditions: SIF without enzymes, pH 6.5; 10 μm; 2 hours at 37° C.; substance amount remaining
Method: as §1, §2, §3

[8] = test system: HCC827 (lung adenocarcinoma, SM, exon19delE746-A750); assay: Antiproliferative activity on HCC827 cells (Alamar Blue); assay type: cell-based; conditions: Homo sapiens, antiproliferative test
Method: Antiproliferative activity of EGFR inhibitors (Tables 15 and 16) was measured in cell-based bioassay on continuous epithelial cell cultures: A549 (lung adenocarcinoma, ATCC® CRM-CCL-185™—WT), HCC827 (lung adenocarcinoma, ATCC® CRL-2868™—SM (SingleMutantEGFR, exon19delE746-A750)) and H1975 (lung adenocarcinoma, ATCC® CRL-5908™—DM (DoubleMutantEGFR, L828R/T790M)) using cell viability reagent Alamar Blue (ThermoFisher, # DAL1100). Cells were cultured in 10% FBS-supplemented (Gibco, #16140071) RPMI-1640 (PanEco, S330p) for at least 1 passage after thawing, washed with PBS and passaged in 96-well culture plates (3599, Corning) with RPMI-1640 growth medium supplemented with 2% FBS in an amount of 5*10^3 cells/well for A549, 10*10^3 cells/well for HCC827 and 15*10^3 cells/well for H1975 in 100 μL, and incubated at 37° C. in an incubator (Thermo Forma, USA) under 5% of CO2 for 16-18 h for cell attachment.
The test compounds were dissolved in DMSO in the selected range of concentrations and transferred to RPMI-1640 medium (PanEco, S330p) supplemented with 2% FBS. After adding 50 μl of the prepared dilutions to the cells, the incubation mixture contained the final concentrations of the test substances and no more than 1% DMSO. The plates were Incubated at 37° C. for 72 h. After incubation, 15 μl of Alamar Blue vital dye (ThermoFisher, # DAL1100) was added to each well. The plates were shaken on an orbital shaker (Biosan, Latvia) and further incubated for 3-5 h in a CO2 incubator (Thermo Forma, USA). Number of living cells was estimated using a plate spectrophotometer Infinite M200Pro, (Tecan, Switzerland) measuring fluorescent signal at the excitation wavelength (λEx) of 540 nm and emission wavelength (λEm) of 590 nm.
IC50 was calculated using Magellan 7.2 software (Tecan, Switzerland) approximating experimental points by four-parameter logistic model with the optimization by Levenberg-Marquardt.

[9] = average values obtained in several tests, Table 16, read-out: H1975 (DM) IC50
[10] = antiproliferative test, Table 15, read-out: IC50 H1975 (DM)

| Stability in SGF, % [1] [%] | pIC50 [2] | pIC50 (WT EGFR (Wild-Type EGFR)) | Stability in blood plasma, % [3] [%] | pIC50 [5] | SI, IC50(WT)/IC50(DM) [5] | pIC50 [6, 9] | pIC50 [6, 10] | Stability in SIF, % [7] [%] | pIC50 [8] | SMILES | CC50 at 72 h [4] [µM] | TI, CC50/IC50 (HepG2 cells) | SI IC50(A549)/IC50(DM) [6] |
| --- | --- | --- | --- | --- | --- | --- | --- | --- | --- | --- | --- | --- | --- |
| 99.0 | 4.79 | 6.29 | 82.7 | 8.16 | 74.07 | 6.78 | 6.78 | 100.0 | 6.95 | C=CC(=O)Nc1cc(Nc2nccc(C(=O)c3cccc([N+](=O)[O-])c3)n2)c(OC)cc1N(C)CCN(C)C [EGFR_3365_34] | 10.3 | 62 | 98.26 |
| 98.0 | 4.45 | 6.69 | 67.5 | 8.28 | 38.41 | 7.03 | 7.03 | 99.7 | 7.95 | C=CC(=O)Nc1cc(Nc2nccc(C(=O)c3cccc(OC)c3)n2)c(OC)cc1N(C)CCN(C)C [EGFR_3365_32, N-(2-((2-(dimethylamino)ethyl)(methyl)amino)-4-methoxy-5-((4-(3-methoxybenzoyl)pyrimidin-2-yl)amino)phenyl)acrylamide] | 24.8 | 265 | 376.12 |
